According to US20090105305A1, “Therapeutic Agents - 550” (AstraZeneca AB, priority 2006, published 2009):

Molecular target: T1, human Fatty Acid Synthase (Homo sapiens, UniProt P49327)
T1 construct: made in house
Test: Human FAS enzyme assay (decrease in NADPH fluorescence)
Assay type: biochemical
Details: for inhibition at 100 µM: % inhibition at a concentration of 100 micromolar; for IC50s in the range of about 0.001 μM to about 30 μM: compounds excluded from the claims by proviso
Source text: The compounds of the present invention are Fatty Acid Synthase inhibitors. […] Human and Rat FAS Enzyme Assay.
Fatty acid synthase is an enzyme complex that harbours seven enzymatic activities catalysing the reductive synthesis of long chain fatty acids from acetyl CoA and malonyl CoA to palmitate. When acetyl CoA and malonyl CoA are forming palmitate NADPH is consumed forming NADP. Since NADPH is fluorescent but not NADP the reaction can be measured by analysing the decrease in fluorescence.
Compounds were added to a black 384 well plate (Matrix) in a volume of 5 μl consisting of 20% DMSO and 80% Tris buffer pH 7.5, at a top concentration of 1 mM. NADPH, 30 μl of 166.6 μM, formulated in assay buffer (0.1M Tris ph7.5, 0.1 mM EDTA, 1 mM glutathione, 0.05% BSA), was then added to all of the wells of the plate. Fatty acid synthase Human or rat enzyme (0.4 μg, produced in house), dissolved in 20 mM Tris/HCl pH 7.5, 5 mM BOG, 1 mM TCEP, 10% glycerol, 1 mM EDTA, 150 mM NaCl, was then added to the plate in a volume of […]. Enzyme was added to all but the last two columns of the plate, to which, 10 μl of assay buffer was added (0.1M Tris ph7.5, 0.1 mM EDTA, 1 mM glutathione, 0.05% BSA) to provide a no enzyme assay control. Following a 15-minute incubation period, at room temperature, the plates were read on an Envision plate reader using 340 nm excitation and 460 nm emission filters. This served as a time zero background read. Substrates (an equal mix of both malonyl and acetyl CoA) were then added to the plates in a total volume of 5 μl. The concentrations of malonyl and acetyl CoA in the mixture were 500 μM and 150 μM respectively. Both were prepared as 10 mM stock solutions in distilled water and were subsequently diluted to working concentrations in assay buffer. Plates were then incubated for a further 60 minutes, at room temperature, before being read again on the Envision reader using the same parameters as previously used. The data was analysed by subtracting the background time zero data from that generated following the final 60 minute incubate and the percent inhibition compared to the maximum and minimum assay controls was determined. Sigmoid curves were fitted using Origin 7.5 Client software and IC50 values were determined.

T1 sequence (P49327 whole entry): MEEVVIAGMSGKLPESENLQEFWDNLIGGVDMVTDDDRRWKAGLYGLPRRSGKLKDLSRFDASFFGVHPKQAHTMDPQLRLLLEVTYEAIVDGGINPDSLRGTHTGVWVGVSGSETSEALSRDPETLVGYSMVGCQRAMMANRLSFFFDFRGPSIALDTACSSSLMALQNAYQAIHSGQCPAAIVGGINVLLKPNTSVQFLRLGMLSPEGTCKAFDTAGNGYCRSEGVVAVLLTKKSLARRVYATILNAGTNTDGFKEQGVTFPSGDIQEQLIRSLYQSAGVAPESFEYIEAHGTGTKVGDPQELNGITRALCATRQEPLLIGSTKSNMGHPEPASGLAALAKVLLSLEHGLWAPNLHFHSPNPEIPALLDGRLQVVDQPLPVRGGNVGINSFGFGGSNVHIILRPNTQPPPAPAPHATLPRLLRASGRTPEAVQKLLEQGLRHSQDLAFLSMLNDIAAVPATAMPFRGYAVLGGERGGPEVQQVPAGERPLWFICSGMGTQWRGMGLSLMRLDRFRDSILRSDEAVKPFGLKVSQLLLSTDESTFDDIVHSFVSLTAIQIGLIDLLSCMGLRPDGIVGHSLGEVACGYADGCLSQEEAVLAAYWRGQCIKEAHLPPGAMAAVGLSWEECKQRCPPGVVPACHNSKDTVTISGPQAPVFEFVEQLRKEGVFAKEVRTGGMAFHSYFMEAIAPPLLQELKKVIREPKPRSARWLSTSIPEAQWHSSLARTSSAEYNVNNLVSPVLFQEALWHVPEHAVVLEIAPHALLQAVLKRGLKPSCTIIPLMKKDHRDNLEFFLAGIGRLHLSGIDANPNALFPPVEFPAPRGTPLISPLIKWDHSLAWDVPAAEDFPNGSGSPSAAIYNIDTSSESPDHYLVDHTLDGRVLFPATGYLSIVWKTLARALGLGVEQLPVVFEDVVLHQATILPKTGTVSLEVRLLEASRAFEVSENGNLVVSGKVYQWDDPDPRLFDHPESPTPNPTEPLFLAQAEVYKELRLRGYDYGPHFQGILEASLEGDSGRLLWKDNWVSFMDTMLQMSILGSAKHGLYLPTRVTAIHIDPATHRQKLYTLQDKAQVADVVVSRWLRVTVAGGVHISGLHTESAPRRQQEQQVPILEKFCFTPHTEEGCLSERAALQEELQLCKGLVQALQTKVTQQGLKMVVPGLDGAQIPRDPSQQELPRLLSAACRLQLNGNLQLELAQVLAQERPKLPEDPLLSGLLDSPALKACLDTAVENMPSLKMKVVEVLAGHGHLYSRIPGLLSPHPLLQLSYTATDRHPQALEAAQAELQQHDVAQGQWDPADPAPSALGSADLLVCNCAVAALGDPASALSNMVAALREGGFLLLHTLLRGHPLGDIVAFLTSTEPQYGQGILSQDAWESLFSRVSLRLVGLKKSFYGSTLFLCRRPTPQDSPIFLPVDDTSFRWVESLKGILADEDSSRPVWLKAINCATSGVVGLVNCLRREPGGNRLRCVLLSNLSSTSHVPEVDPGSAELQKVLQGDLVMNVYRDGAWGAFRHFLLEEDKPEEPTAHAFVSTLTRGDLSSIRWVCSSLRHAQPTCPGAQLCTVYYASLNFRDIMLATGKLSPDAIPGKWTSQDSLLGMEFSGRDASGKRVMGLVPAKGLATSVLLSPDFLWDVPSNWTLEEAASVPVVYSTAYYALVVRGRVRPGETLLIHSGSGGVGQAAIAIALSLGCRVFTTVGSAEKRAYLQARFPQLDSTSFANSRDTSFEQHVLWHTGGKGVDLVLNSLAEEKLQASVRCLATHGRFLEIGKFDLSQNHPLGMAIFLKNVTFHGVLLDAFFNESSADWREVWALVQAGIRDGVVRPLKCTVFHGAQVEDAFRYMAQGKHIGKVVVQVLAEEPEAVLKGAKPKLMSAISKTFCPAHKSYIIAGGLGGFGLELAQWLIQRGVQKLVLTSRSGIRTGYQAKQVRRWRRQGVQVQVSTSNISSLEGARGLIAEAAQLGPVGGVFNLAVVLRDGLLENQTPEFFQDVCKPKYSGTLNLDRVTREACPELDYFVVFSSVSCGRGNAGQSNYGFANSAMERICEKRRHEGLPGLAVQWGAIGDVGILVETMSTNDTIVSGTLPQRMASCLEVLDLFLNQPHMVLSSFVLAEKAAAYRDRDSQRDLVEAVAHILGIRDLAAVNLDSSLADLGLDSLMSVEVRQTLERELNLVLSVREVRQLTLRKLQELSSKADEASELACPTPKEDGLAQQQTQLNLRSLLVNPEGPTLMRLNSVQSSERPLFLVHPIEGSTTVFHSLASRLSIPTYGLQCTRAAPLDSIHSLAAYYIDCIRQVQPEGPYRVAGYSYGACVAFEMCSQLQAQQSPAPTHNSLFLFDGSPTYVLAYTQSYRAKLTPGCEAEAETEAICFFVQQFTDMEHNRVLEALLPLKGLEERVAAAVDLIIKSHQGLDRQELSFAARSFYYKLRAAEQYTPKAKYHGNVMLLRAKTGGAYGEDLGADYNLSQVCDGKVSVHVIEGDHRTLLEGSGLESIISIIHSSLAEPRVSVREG

Row | Structure (SMILES) | inhibition at 100 µM [%] | IC50s in the range of about 0.001 μM to about 30 μM
1 | Cc1ccc(C(=O)N2CCC(c3ccc(CC(=O)N(C)C)cc3)CC2)cc1NS(C)(=O)=O [2-[4-[1-(3-methanesulfonamido-4-methylbenzoyl)piperidin-4-yl]phenyl]-N,N-dimethylacetamide] |  | do not have IC50s in the range of about 0.001 μM to about 30 μM
2 | Cc1ccc(C(=O)N2CCC(c3ccc(CC(N)=O)cc3)CC2)cc1NS(C)(=O)=O [2-[4-[1-(3-methanesulfonamido-4-methylbenzoyl)piperidin-4-yl]phenyl]acetamide] |  | do not have IC50s in the range of about 0.001 μM to about 30 μM
3 | Cc1ccc(C(=O)N2CCC(c3ccc(CC(=O)O)cc3)CC2)cc1NS(C)(=O)=O [2-[4-[1-(3-methanesulfonamido-4-methylbenzoyl)piperidin-4-yl]phenyl]acetic acid] |  | do not have IC50s in the range of about 0.001 μM to about 30 μM
4 | Cc1ccc(C(=O)N2CCC(c3ccc(CC(=O)O)cc3)CC2)cc1NS(=O)(=O)C1CCCCC1 [2-[4-[1-[3-(cyclohexylsulfonylamino)-4-methylbenzoyl]piperidin-4-yl]phenyl]acetic acid] |  | do not have IC50s in the range of about 0.001 μM to about 30 μM
5 | COc1ccc(CNC(=O)c2ccccc2S(=O)(=O)Nc2cc(C(=O)N3CCC(c4ccc(C#N)cc4)CC3)ccc2C)c(OC)c1 [2-[[5-[4-(4-cyanophenyl)piperidine-1-carbonyl]-2-methylphenyl]sulfamoyl]-N-[(2,4-dimethoxyphenyl)methyl]benzamide] |  | do not have IC50s in the range of about 0.001 μM to about 30 μM
6 | CNC(=O)c1ccccc1S(=O)(=O)Nc1cc(C(=O)N2CCC(c3ccc(C#N)cc3)CC2)ccc1C [2-[[5-[4-(4-cyanophenyl)piperidine-1-carbonyl]-2-methylphenyl]sulfamoyl]-N-methylbenzamide] |  | do not have IC50s in the range of about 0.001 μM to about 30 μM
7 | Cc1ccc(C(=O)N2CCC(c3ccc(C#N)cc3)CC2)cc1NS(=O)(=O)c1ccccc1C(=O)O [2-[[5-[4-(4-cyanophenyl)piperidine-1-carbonyl]-2-methylphenyl]sulfamoyl]benzoic acid] |  | do not have IC50s in the range of about 0.001 μM to about 30 μM
8 | Cc1ccc(C(=O)N2CCC(c3ccc(CNC(=O)C(C)(C)O)cc3)CC2)cc1NS(C)(=O)=O [2-hydroxy-N-[[4-[1-(3-methanesulfonamido-4-methylbenzoyl)piperidin-4-yl]phenyl]methyl]-2-methylpropanamide] |  | do not have IC50s in the range of about 0.001 μM to about 30 μM
9 | Cc1ccc(C(=O)N2CCC(c3ccc(C(=O)N(C)C)cc3)CC2)cc1NS(C)(=O)=O [4-[1-(3-methanesulfonamido-4-methylbenzoyl)piperidin-4-yl]-N,N-dimethylbenzamide] |  | do not have IC50s in the range of about 0.001 μM to about 30 μM
10 | Cc1ccc(C(=O)N2CCC(c3ccc(S(=O)(=O)N(C)C)cc3)CC2)cc1NS(C)(=O)=O [4-[1-(3-methanesulfonamido-4-methylbenzoyl)piperidin-4-yl]-N,N-dimethylbenzenesulfonamide] |  | do not have IC50s in the range of about 0.001 μM to about 30 μM
11 | Cc1ccc(C(=O)N2CCC(c3ccccc3)CC2)cc1NS(=O)(=O)c1ccc(Cl)cc1 [4-chloro-N-[2-methyl-5-(4-phenylpiperidine-1-carbonyl)phenyl]benzenesulfonamide] |  | do not have IC50s in the range of about 0.001 μM to about 30 μM
12 | Cc1ccc(C(=O)N2CCC(c3ccc(C#N)cc3)CC2)cc1NS(=O)(=O)C1CCN(C(=O)OCc2ccccc2)C1 (centres unmarked) [Benzyl 3-[[5-[4-(4-cyanophenyl)piperidine-1-carbonyl]-2-methylphenyl]sulfamoyl]pyrrolidine-1-carboxylate] |  | do not have IC50s in the range of about 0.001 μM to about 30 μM
13 | Cc1ccc(C(=O)N2CCC(c3ccc(C#N)cc3)CC2)cc1NS(C)(=O)=O [Example 1, N-(5-(4-(4-cyanophenyl)piperidine-1-carbonyl)-2-methylphenyl)methanesulfonamide] | 86 | 
14 | Cc1ccc(C(=O)N2CCC(c3ccc(C#N)cc3)CC2)cc1NS(=O)(=O)c1ccccc1F [Example 2, N-[5-[4-(4-cyanophenyl)piperidine-1-carbonyl]-2-methyl-phenyl]-2-fluoro-benzenesulfonamide] | 82 | 
15 | Cc1ccc(C(=O)N2CCC(c3ccc(C#N)cc3)CC2)cc1NS(=O)(=O)c1ccc(Cl)cc1 [Example 3, 4-chloro-N-[5-[4-(4-cyanophenyl)piperidine-1-carbonyl]-2-methyl-phenyl]benzenesulfonamide] | 96 | 

The next lines start with results.

Row | inhibition at 100 µM [%] | Structure (SMILES) | IC50s in the range of about 0.001 μM to about 30 μM
16 | 92 | CCC(C)S(=O)(=O)Nc1cc(C(=O)N2CCC(c3ccc(C#N)cc3)CC2)ccc1C (racemic) [Example 18, (RS)—N-[5-[4-(4-cyanophenyl)piperidine-1-carbonyl]-2-methyl-phenyl]butane-2-sulfonamide] | 
17 | 89 | CCC(C)S(=O)(=O)Nc1ccc(C)c(C(=O)N2CCC(c3ccc(C#N)cc3)CC2)c1 (racemic) [Example 44, (RS) N-[3-[4-(4-cyanophenyl)piperidine-1-carbonyl]-4-methyl-phenyl]butane-2-sulfonamide] | 
18 | 98 | Cc1ccc(C(=O)N2CCC(c3ccc(C#N)cc3)CC2)cc1NS(=O)(=O)CC1(C)NC(=O)NC1=O (stereo in doubt) [Example 147, N-[5-[4-(4-cyanophenyl)piperidine-1-carbonyl]-2-methyl-phenyl]-1-[(4R)-4-methyl-2,5-dioxo-imidazolidin-4-yl]methanesulfonamide] | 
19 | 81 | Cc1ccc(C(=O)N2CCC(c3ccc(C#N)cc3)CC2)cc1NS(=O)(=O)Cc1ccccc1 [Example 4, N-[5-[4-(4-cyanophenyl)piperidine-1-carbonyl]-2-methyl-phenyl]-1-phenyl-methanesulfonamide] | 
20 | 92 | CCCS(=O)(=O)Nc1cc(C(=O)N2CCC(c3ccc(C#N)cc3)CC2)ccc1C [Example 5, N-[5-[4-(4-cyanophenyl)piperidine-1-carbonyl]-2-methyl-phenyl]propane-1-sulfonamide] | 
21 | 75 | COc1ccc(C(=O)N2CCC(c3ccc(C#N)cc3)CC2)cc1NS(C)(=O)=O [Example 6, N-[5-[4-(4-cyanophenyl)piperidine-1-carbonyl]-2-methoxy-phenyl]methanesulfonamide] | 
22 | 78 | Cc1ccc(NS(C)(=O)=O)cc1C(=O)N1CCC(c2ccc(C#N)cc2)CC1 [Example 7, N-[3-[4-(4-cyanophenyl)piperidine-1-carbonyl]-4-methyl-phenyl]methanesulfonamide] | 
23 | 82 | Cc1ccc(NS(=O)(=O)Cc2ccccc2)cc1C(=O)N1CCC(c2ccc(C#N)cc2)CC1 [Example 8, N-[3-[4-(4-cyanophenyl)piperidine-1-carbonyl]-4-methyl-phenyl]-1-phenyl-methanesulfonamide] | 
24 | 95 | Cc1ccc(C(=O)N2CCC(c3ccc(C#N)cc3)CC2)cc1NS(=O)(=O)CCCCl [Example 9, 3-chloro-N-[5-[4-(4-cyanophenyl)piperidine-1-carbonyl]-2-methyl-phenyl]propane-1-sulfonamide] | 
25 | 78 | Cc1ccc(C(=O)N2CCC(c3ccc(C#N)cc3)CC2)cc1NS(=O)(=O)c1ccccc1 [Example 10, N-[5-[4-(4-cyanophenyl)piperidine-1-carbonyl]-2-methyl-phenyl]benzenesulfonamide] | 
26 | 88 | CCS(=O)(=O)Nc1cc(C(=O)N2CCC(c3ccc(C#N)cc3)CC2)ccc1C [Example 11, N-[5-[4-(4-cyanophenyl)piperidine-1-carbonyl]-2-methyl-phenyl]ethanesulfonamide] | 
27 | 90 | CCCCS(=O)(=O)Nc1cc(C(=O)N2CCC(c3ccc(C#N)cc3)CC2)ccc1C [Example 12, N-[5-[4-(4-cyanophenyl)piperidine-1-carbonyl]-2-methyl-phenyl]butane-1-sulfonamide] | 
28 | 76 | COC(=O)CS(=O)(=O)Nc1cc(C(=O)N2CCC(c3ccc(C#N)cc3)CC2)ccc1C [Example 13, methyl 2-[[5-[4-(4-cyanophenyl)piperidine-1-carbonyl]-2-methyl-phenyl]sulfamoyl]acetate] | 
29 | 89 | Cc1ccc(C(=O)N2CCC(c3ccc(C#N)cc3)CC2)cc1NS(=O)(=O)C1CC1 [Example 14, N-[5-[4-(4-cyanophenyl)piperidine-1-carbonyl]-2-methyl-phenyl]cyclopropanesulfonamide] | 
